Activity calls are given as the source filed them. The calls are words filed in the database; no cut-off is given here.
Legend:
PC-12 [1] = assay: Neuroprotective activity against TBHP-induced cellular damage in rat PC12 cells assessed as cell viability at 10 uM pretreated for 1 hr followed by TBHP addition and measured after 3 hrs by CCK8 assay (reference value: 27.3%); format: functional; settings: for viability at 10 µM: read-out: Activity
Acetylcholinesterase = Acetylcholinesterase (Electrophorus electricus, UniProt O42275); assay: (§1) Inhibition of electric eel AChE using acetylthiocholine iodide as substrate pretreated for 15 mins followed by substrate addition and measured after 60 mins by Ellman's method
[2] = target: Acetylcholinesterase (Electrophorus electricus) (UniProt O42275); assay: as §1
PC-12 [3] = assay: Toxicity in TBHP treated rat PC12 cells assessed as reduction cell viability at 10 uM pretreated for 1 hr followed by TBHP addition and measured after 3 hrs by CCK8 assay; format: cell-based; settings: pc-12, 3 h
RAW264.7 = assay: Antiinflammatory activity in mouse RAW264.7 cells assessed as inhibition of LPS/IFNgamma-induced NO production by measuring NO level preincubated for 2 hrs and followed by LPS/IFNgamma addition and measured after 24 hrs by Griess assay; format: functional, cell-based
[4] = target: Acetylcholinesterase (Electrophorus electricus) (UniProt O42275); assay: Inhibition of electric eel AChE at 12.5 uM using acetylthiocholine iodide as substrate pretreated for 15 mins followed by substrate addition and measured after 60 mins by Ellman's method relative to control

Chain of Acetylcholinesterase (O42275 whole entry): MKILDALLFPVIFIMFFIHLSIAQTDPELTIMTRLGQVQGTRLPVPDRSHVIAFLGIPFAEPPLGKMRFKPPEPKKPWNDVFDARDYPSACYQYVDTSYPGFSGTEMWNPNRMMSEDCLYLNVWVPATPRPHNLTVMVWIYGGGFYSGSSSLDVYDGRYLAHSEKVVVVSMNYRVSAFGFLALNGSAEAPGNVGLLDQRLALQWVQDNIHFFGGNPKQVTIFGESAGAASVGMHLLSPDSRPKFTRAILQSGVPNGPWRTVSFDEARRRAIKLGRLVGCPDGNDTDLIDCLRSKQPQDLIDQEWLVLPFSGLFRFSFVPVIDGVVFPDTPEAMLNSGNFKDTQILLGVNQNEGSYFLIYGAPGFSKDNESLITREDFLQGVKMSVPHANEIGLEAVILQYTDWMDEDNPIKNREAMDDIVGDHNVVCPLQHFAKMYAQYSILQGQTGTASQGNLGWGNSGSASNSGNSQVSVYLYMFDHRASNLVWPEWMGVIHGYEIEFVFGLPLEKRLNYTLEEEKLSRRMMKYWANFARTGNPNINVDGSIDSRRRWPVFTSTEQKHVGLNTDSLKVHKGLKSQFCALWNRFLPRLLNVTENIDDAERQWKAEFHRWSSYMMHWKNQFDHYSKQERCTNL
Chain of Acetylcholinesterase (Electrophorus electricus) (O42275 24-633 limits assumed): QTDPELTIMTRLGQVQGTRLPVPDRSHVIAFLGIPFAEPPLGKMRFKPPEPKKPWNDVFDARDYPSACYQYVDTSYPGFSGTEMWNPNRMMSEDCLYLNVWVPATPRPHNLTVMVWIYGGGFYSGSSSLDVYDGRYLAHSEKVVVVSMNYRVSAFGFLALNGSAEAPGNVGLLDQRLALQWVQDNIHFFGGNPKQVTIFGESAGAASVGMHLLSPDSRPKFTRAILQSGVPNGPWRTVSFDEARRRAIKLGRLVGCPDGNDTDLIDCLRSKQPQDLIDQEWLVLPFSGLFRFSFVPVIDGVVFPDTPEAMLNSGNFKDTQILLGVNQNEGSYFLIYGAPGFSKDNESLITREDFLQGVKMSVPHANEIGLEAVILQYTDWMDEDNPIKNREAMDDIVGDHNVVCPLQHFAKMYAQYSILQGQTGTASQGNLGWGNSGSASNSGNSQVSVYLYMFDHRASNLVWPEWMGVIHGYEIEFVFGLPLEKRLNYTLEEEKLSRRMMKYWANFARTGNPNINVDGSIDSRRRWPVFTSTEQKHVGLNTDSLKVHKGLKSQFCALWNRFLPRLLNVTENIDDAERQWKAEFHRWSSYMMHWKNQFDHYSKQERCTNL

SMILES	Activity (PC-12 [1])	IC50 (Acetylcholinesterase) [µM]	inhibition [2]	Activity (PC-12 [3])	IC50 (RAW264.7) [µM]	inhibition (RAW264.7)	viability at 10 µM (PC-12 [1]) [%]	inhibition [4] [%]
COc1cc([C@@H]2Oc3c(OC)cc(/C=C/C(=O)NCCc4ccc(O)cc4)cc3[C@H]2C(=O)NCCc2ccc(O)cc2)ccc1O [GROSSAMIDE]	inactive	39.3	Dose-dependent effect	Toxic	24.7	Dose-dependent effect	–	–
COC(=O)/C=C/c1cc(OC)c2c(c1)[C@H](C(=O)OC)[C@@H](c1ccc(O)c(OC)c1)O2 (racemic)	–	–	inactive	–	51.4	Dose-dependent effect	–	–
COc1cc(/C=C/c2ccc(O)cc2)cc(OC)c1 [PTEROSTILBENE]	–	–	–	–	30	Dose-dependent effect	–	–
COc1cc(/C=C/c2ccc3c(c2)[C@H](c2cc(OC)cc(OC)c2)[C@@H](c2ccc(O)cc2)O3)cc(OC)c1	–	11.7	–	–	24	Dose-dependent effect	75.5	> 50
Oc1ccc([C@H]2Oc3ccc(/C=C/c4cc(O)cc(O)c4)cc3[C@@H]2c2cc(O)cc(O)c2)cc1	–	4.3	–	–	80.2	Dose-dependent effect	60.2	> 50
O=c1c(O)c(-c2ccc(O)c(O)c2)oc2cc(O)cc(O)c12 [QUERCETIN]	–	–	–	–	–	–	65.1	–
Oc1ccc(/C=C/c2cc(O)cc(O)c2)cc1 [RESVERATROL]	–	–	–	–	44.1	Dose-dependent effect	57.5	–
COC(=O)CCc1cc(OC)c2c(c1)[C@H](C(=O)OC)[C@@H](c1ccc(O)c(OC)c1)O2	–	–	inactive	–	231	Dose-dependent effect	–	–
COc1cc(/C=C/C(=O)OCCCc2cc(OC)c3c(c2)C(COC(=O)/C=C/c2ccc(O)c(OC)c2)C(c2ccc(O)c(OC)c2)O3)ccc1O (stereo unspecified)	–	29.8	Dose-dependent effect	–	9.4	Dose-dependent effect	72.7	–
COc1cc([C@H]2Oc3c(OC)cc(CCCO)cc3[C@@H]2CO)ccc1O [DIHYDRODEHYDRODICONIFERY ALCOHOL]	–	–	inactive	–	60.4	Dose-dependent effect	–	–
